Measured values: the NIST ThermoML archive (doi:10.1016/j.tca.2013.02.006)
Numbers after ± are expanded uncertainties.

Key:
[1] = 101.33 kPa, Liquid, Vibrating tube method
[2] = refractive index (Na D-line) (dimensionless); conditions: 298.2 K; 101.33 kPa; Liquid; Standard Abbe refractometry

SMILES | mass density ([1]; 293.2 K) [kg/m3] | refractive index [2] | mass density ([1]; 298.2 K) [kg/m3]
CCCCCCCCCCCCS [1-dodecanethiol] | 843.94 ± 0.24 | 1.4586 ± 0.0008 | 
CCCCCCCCCCO [decan-1-ol] |  | 1.4349 ± 0.0008 | 826.48 ± 0.24
CCCCCCCCCCCCO [dodecan-1-ol] |  | 1.4412 ± 0.0008 | 829.76 ± 0.24
